In PubChem BioAssay AID224 (DTP/NCI, 2004):
Several values for one entry are separate records, joined by “and”; a condition that tells them apart may be missing. Identical values can stand only once. Toxic doses and inconclusive results are not listed. Rule for the calls: active = survival T/C of 150% or more; inactive = T/C below 125% in these data.

Test system: P335 leukemia ip, BDF1 mice, survival T/C %
Assay: NCI In Vivo Anticancer Drug Screen. Data for tumor model P335 Leukemia (intraperitoneal) in B6D2F1 (BDF1) mice
Conditions: endpoint: mean survival time, schedule: Q01DX Z (ip), higher = longer survival
Procedure: The antitumor activity of compounds was measured in mice bearing transplantable tumors. Survival or tumor size were measured and the results are expressed as the measurement made in the treated group (T) divided by the measurement made in the vehicle treated control group (C). The tumor model used in this assay is P335 Leukemia (intraperitoneal) in B6D2F1 (BDF1) mice

[1] = dose: 9.4 mg/kg/injection, vehicle: carboxymethylcellulose (CMC)
[2] = dose: 18.75 mg/kg/injection, vehicle: carboxymethylcellulose (CMC)
[3] = dose: 37.5 mg/kg/injection, vehicle: carboxymethylcellulose (CMC)
[4] = dose: 75.0 mg/kg/injection, vehicle: carboxymethylcellulose (CMC)

Measured: T/C

O=CN(O)CC(=O)O
inactive: dose: 125.0 mg/kg/injection, vehicle: none 87 % of control | dose: 250.0 mg/kg/injection, vehicle: none 95 % of control | dose: 500.0 mg/kg/injection, vehicle: carboxymethylcellulose (CMC) 109 % of control | dose: 500.0 mg/kg/injection, vehicle: none 89 % of control | dose: 1000.0 mg/kg/injection, vehicle: carboxymethylcellulose (CMC) 93 % of control

O=c1[nH]c(=O)n(C2CC(O)C(CO)O2)cc1I (stereo not given)
inactive: dose: 225.0 mg/kg/injection, vehicle: carboxymethylcellulose (CMC) 93 % of control | dose: 450.0 mg/kg/injection, vehicle: carboxymethylcellulose (CMC) 104 % of control

O=C1CCC(N2C(=O)c3ccccc3C2=O)C(=O)N1 (stereo not given)
inactive: [1] 92 % of control | [2] 86 % of control and 97 % of control | [3] 88 % of control and 90 % of control and 119 % of control | [4] 100 % of control and 102 % of control | dose: 150.0 mg/kg/injection, vehicle: carboxymethylcellulose (CMC) 88 % of control and 98 % of control | dose: 300.0 mg/kg/injection, vehicle: carboxymethylcellulose (CMC) 86 % of control

O=C(Nc1ccc(C2=NCCN2)cc1)c1cccc(C(=O)Nc2ccc(C3=NCCN3)cc2)c1
inactive: [1] 98 % of control | [2] 114 % of control | [3] 123 % of control | [4] 98 % of control

C=CC(CN1CC1)OC(C)=O (stereo not given)
inactive: dose: 0.47 mg/kg/injection, vehicle: carboxymethylcellulose (CMC) 106 % of control | dose: 0.95 mg/kg/injection, vehicle: carboxymethylcellulose (CMC) 110 % of control | dose: 1.9 mg/kg/injection, vehicle: carboxymethylcellulose (CMC) 103 % of control
